US20130096185A1, “INACTIVATION OF miR-34a BY ABERRANT CpG METHYLATION IN CANCER” (priority 2008, published 2013)

Tested on: miR-34a promoter
Experiment: Bisulfite sequencing of miR-34a promoter CpG methylation after 5Aza-2′dC treatment
Format: cell-based, human
Conditions: LAPC-4 cells
Text: (a) Pattern of CpG methylation in the miR-34a promoter region in prostate epithelial cells and derived cancer cell lines. The depicted region corresponds to 2.5 kbp upstream of the transcriptional start site (TSS, position indicated by arrow). Vertical bars represent CpG-dinucleotides. The position of the p53 binding site is indicated. The horizontal bars indicate amplified PCR products which were sub-cloned and analyzed by sequencing (gray: distal fragment, black: proximal fragment). The combined results obtained by sequencing of 8 independent subclones are shown for each cell line. Black areas represent the degree of cytosine methylation at the respective CpG position. The white shaded areas indicate methylation after treatment of LAPC-4 cells with 5Aza-2′dC. The open rectangles correspond to the regions covered by the MSP primers. IVM DNA was used as positive control for amplification of the M product. BPH1: benign prostate hyperplasia cells immortalized with SV40 large T antigen. IVM: in vitro methylated DNA.
Reversion of genomic methylation. Cells were grown in the presence of 1 μM 5-aza-2′deoxycytidine (5Aza-2′dC, Sigma) for 72 hours and 300 nM trichostatin A (TSA, Sigma) for the last 24 hours. […]
Bisulfite sequencing. […] For each cell line at least 8 individual clones were sequenced on both strands using M13 primers and BigDye terminator, and analyzed on a 3700 capillary sequencer (Applera).

Q: For `Nc1ncn([C@H]2C[C@H](O)[C@@H](CO)O2)c(=O)n1` [5Aza-2′dC, 5-aza-2′deoxycytidine], which “level of CpG methylation of miR-34a” value is on record?
A: reduction in the level of CpG methylation
